Experimental data as given in publication PMC8426393, “Interactions of anti-COVID-19 drug candidates with hepatic transporters may cause liver toxicity and affect pharmacokinetics” (Scientific Reports, 2021).
Entries after “also recorded” stand apart in the source; their conditions may differ. Where two headings read alike, the source gives them in different places.

Tests used:
[1] = target: T1, ABCC3/MRP3 (Homo sapiens, UniProt O15438); test: MRP3 vesicular transport: ATP- and benzbromarone-sensitive CDCF uptake into inverted HEK-293 membrane vesicles; type: biochemical; settings: for ABCC3/MRP3 Type of effect: HEK-293 vesicles; for concentration at which MRP3 transport is inhibited: CDCF uptake
T1 construct: purchased Solvo Biotechnology (Budapest, Hungary); host or cells: HEK-293 cells
T1 sequence (O15438 whole entry): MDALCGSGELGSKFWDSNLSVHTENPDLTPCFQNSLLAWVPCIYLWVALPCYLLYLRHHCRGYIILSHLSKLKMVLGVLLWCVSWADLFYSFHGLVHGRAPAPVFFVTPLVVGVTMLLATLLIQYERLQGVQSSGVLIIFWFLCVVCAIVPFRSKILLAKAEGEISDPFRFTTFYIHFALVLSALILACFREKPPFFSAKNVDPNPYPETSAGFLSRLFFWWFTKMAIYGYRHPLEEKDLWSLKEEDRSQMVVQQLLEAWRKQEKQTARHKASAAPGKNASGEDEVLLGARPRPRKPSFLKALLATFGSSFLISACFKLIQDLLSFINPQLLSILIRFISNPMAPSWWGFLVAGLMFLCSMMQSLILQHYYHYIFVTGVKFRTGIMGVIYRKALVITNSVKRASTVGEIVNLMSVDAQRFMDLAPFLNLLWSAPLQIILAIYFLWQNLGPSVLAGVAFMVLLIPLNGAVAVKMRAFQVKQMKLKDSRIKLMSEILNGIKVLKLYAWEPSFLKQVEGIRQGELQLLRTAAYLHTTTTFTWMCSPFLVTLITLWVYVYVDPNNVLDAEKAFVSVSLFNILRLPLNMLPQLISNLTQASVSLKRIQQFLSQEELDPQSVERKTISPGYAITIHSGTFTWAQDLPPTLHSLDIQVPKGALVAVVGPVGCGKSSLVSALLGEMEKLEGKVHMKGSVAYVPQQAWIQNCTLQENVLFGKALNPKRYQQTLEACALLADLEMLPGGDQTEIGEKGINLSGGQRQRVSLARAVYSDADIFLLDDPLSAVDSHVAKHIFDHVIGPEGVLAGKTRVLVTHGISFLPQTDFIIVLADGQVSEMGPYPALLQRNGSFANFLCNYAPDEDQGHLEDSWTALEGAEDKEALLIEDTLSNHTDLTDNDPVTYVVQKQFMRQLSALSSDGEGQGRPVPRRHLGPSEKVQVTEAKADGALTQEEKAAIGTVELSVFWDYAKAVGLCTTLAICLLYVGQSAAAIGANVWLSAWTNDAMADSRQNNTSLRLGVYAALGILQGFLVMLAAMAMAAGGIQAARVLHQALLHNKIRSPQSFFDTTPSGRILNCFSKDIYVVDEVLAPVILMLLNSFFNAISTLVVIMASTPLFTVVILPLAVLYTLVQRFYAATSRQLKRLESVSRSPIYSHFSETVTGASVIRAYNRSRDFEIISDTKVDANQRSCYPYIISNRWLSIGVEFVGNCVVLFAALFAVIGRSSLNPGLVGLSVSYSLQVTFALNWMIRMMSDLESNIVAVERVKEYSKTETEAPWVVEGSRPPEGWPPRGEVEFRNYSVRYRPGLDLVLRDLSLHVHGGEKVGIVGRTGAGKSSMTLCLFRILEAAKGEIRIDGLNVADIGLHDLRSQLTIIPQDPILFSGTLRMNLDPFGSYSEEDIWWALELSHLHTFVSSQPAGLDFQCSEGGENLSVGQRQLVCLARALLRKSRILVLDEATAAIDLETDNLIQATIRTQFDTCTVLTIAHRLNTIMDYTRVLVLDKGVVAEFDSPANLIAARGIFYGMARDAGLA

[2] = target: T2, ABCC2/MRP2 (Homo sapiens, UniProt Q92887); test: MRP2 vesicular transport: ATP-dependent CDCF uptake into inverted Sf9 membrane vesicles; type: biochemical; settings: CDCF 5 µM, 37 °C, 10 min; for ABCC2/MRP2 Type of effect: Sf9 vesicles
T2 construct: made in house; host or cells: Sf9 insect cells (baculovirus)
T2 sequence (Q92887 whole entry): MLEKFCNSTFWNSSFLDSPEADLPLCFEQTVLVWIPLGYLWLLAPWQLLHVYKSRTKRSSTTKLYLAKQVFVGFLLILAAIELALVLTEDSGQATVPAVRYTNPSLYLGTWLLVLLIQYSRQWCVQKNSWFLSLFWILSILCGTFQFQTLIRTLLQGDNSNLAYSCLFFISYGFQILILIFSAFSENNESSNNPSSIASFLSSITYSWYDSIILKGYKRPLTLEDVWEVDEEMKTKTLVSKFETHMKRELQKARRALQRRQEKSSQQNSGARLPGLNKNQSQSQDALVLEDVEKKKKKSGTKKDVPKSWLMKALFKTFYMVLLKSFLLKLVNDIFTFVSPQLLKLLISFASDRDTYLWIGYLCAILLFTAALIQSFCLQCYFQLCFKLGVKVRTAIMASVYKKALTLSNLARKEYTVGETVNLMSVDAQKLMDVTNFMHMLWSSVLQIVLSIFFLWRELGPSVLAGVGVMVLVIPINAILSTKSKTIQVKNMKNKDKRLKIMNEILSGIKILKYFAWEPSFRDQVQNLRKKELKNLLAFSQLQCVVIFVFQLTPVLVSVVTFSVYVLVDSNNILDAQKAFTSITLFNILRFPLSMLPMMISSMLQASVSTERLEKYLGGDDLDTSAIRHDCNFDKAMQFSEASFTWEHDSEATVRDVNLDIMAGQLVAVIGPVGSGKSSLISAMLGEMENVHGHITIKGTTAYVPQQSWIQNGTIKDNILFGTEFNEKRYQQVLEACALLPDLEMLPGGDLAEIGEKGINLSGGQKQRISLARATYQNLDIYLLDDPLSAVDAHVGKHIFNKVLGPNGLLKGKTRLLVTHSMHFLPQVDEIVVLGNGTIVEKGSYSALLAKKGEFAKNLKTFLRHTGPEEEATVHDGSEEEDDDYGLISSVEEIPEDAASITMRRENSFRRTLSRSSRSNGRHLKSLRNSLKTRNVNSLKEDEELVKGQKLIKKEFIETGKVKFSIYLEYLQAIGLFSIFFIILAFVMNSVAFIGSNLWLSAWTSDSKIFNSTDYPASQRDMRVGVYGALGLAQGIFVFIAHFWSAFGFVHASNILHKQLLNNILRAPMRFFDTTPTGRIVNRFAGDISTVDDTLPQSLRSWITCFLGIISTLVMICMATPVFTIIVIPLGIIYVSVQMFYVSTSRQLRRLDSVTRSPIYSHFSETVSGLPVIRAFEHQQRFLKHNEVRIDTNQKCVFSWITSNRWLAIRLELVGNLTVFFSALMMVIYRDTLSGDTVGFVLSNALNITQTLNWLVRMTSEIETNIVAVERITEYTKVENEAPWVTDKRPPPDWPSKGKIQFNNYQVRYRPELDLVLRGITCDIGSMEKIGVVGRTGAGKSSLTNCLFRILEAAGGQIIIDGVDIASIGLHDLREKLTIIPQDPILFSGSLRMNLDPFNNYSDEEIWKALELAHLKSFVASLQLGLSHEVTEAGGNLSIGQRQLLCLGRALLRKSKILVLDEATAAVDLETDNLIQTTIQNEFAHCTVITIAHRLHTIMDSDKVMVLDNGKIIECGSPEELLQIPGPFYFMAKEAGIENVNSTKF

[3] = target: T3, OATP1B1 (Homo sapiens, UniProt Q9Y6L6); test: OATP1B1-dependent pyranine uptake in overexpressing A431 cells; type: cell-based; settings: for OATP1B1 Type of effect: A431 cells
T3 construct: expressed in transfected cells; host or cells: A431 cells (ATCC)
T3 sequence (Q9Y6L6 1-691): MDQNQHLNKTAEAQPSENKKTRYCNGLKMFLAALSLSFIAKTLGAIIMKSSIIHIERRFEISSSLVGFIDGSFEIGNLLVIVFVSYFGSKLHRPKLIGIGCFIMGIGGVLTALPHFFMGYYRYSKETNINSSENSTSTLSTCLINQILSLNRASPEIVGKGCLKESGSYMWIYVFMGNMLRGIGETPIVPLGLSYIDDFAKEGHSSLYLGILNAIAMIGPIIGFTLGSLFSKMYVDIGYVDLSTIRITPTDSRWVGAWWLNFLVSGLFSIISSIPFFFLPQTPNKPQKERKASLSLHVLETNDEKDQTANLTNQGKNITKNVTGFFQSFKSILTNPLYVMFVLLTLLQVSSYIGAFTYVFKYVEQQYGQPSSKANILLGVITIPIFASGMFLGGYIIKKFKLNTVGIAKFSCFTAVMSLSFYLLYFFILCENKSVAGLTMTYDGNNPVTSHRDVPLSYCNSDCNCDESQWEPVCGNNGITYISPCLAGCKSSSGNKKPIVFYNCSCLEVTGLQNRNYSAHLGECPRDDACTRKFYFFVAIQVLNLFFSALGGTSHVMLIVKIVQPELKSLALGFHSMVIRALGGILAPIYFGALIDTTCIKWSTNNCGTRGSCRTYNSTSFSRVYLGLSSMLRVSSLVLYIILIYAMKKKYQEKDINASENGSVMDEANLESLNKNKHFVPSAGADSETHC

[4] = target: T4, NTCP/SLC10A1 (Homo sapiens, UniProt Q14973); test: NTCP-dependent taurocholate uptake in NTCP-overexpressing HEK-293 cells; type: cell-based; settings: for NTCP/SLC10A1 Type of effect: taurocholate 2 µM, 2 min, 37 °C, HEK-293 cells
T4 construct: expressed in transfected cells; host or cells: HEK-293 cells, lentiviral transduction
T4 sequence (Q14973 1-349): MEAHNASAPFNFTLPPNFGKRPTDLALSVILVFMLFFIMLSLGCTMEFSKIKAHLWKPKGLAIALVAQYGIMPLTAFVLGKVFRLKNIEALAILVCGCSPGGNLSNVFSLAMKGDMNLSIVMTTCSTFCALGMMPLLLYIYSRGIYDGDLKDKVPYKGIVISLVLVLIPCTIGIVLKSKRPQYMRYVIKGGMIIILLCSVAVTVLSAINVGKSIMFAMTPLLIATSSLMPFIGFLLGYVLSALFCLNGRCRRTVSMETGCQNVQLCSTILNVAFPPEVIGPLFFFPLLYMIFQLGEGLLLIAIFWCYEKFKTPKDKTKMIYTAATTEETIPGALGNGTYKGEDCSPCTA

[5] = target: T5, OATP1B3 (Homo sapiens, UniProt Q9NPD5); test: OATP1B3-dependent pyranine uptake in overexpressing A431 cells; type: cell-based; settings: for OATP1B3 Type of effect: A431 cells
T5 construct: expressed in transfected cells; host or cells: A431 cells (ATCC)
T5 sequence (Q9NPD5 1-702): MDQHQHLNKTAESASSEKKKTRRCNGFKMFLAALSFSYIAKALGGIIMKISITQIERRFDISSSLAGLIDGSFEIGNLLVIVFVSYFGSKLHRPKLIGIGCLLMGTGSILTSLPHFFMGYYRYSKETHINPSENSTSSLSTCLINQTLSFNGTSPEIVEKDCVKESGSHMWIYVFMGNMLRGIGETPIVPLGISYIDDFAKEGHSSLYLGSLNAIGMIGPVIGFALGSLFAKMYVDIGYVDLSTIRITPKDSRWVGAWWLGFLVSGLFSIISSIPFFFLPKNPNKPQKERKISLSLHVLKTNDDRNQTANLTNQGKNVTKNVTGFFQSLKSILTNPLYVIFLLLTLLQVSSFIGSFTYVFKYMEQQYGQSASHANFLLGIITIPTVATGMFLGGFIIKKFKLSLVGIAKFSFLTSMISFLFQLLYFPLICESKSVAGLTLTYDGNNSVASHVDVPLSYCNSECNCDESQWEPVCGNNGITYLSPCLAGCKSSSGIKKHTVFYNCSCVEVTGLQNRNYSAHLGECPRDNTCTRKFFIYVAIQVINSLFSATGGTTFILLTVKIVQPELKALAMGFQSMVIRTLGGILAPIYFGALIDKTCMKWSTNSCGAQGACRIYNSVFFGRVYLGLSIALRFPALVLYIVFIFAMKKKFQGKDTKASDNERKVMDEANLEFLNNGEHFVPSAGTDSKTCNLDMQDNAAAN

Row | Structure (SMILES) | ABCC3/MRP3 Type of effect ([1]; CDCF 5 µM, 37 °C, 10 min) | ABCC2/MRP2 Type of effect [2] | OATP1B1 Type of effect ([3]; pyranine 10 µM, 15 min, 37 °C) | NTCP/SLC10A1 Type of effect [4] | OATP1B3 Type of effect ([5]; pyranine 20 µM, 30 min, 37 °C) | IC50 [3] | IC50 [4] | inhibition at 50 µM ([4]; HEK293, read-out: NTCP inhibition) | IC50 [5] | concentration at which MRP3 transport is inhibited [1] | IC50 ([1]; approximate IC50, CDCF 5 µM, 37 °C, 10 min) | IC50 ([2]; approximate IC50) | IC50 ([3]; approximate IC50, pyranine 10 µM, 15 min, 37 °C) | OATP1B3 R value ([5]; DDI estimate, cut off 1.1, 165 µg/kg IVE dose, peak plasma 46 ng/ml) | IC50 ([5]; approximate IC50, pyranine 20 µM, 30 min, 37 °C) | IC50 [1]
1 | NC(=O)c1nc(F)c[nH]c1=O [FAV, favipiravir] | did not influence MRP3 transport at all | no such effect | did not modify OATP functionality | only minor inhibition | did not modify OATP functionality |  |  |  |  |  |  |  |  |  |  | 
2 | CCC(CC)COC(=O)[C@H](C)N[P@](=O)(OC[C@H]1O[C@@](C#N)(c2ccc3c(N)ncnn23)[C@H](O)[C@@H]1O)Oc1ccccc1 [REM, remdesivir] | did not influence MRP3 transport at all; also recorded: did not inhibit; also recorded: No effect | did not inhibit but rather increased the probe substrate transport at high concentrations; also recorded: Increase | inh | inh | inh | 2.9 µM | ≥ 50 µM | 40 to 50% | 4.3 µM |  |  |  |  |  |  | 
3 | CCC(C)C1OC2(CCC1C)CC1CC(CC=C(C)C(OC3CC(OC)C(OC4CC(OC)C(O)C(C)O4)C(C)O3)C(C)C=CC=C3COC4C(O)C(C)=CC(C(=O)O1)C34O)O2 (stereo not drawn) [IVE, ivermectin] | inh | strongly decreased the accumulation of the probe substrate and inh | inh | only minor inhibition | inh |  |  |  |  | > 20 µM | > 50 µM | ≥ 20 µM | ≥ 20 µM | 1.07 | 1.4 µM | 
4 | Cc1cccc(C)c1OCC(=O)N[C@@H](Cc1ccccc1)[C@@H](O)C[C@H](Cc1ccccc1)NC(=O)[C@H](C(C)C)N1CCCNC1=O [LOP, lopinavir] | inh | no such effect |  | inh |  | 1.1 µM | ≥ 50 µM |  | 2.6 µM | > 20 µM |  |  |  |  |  | > 40 µM
